From US20170269060A1, “Assays and Compounds to Treat Kidney Diseases” (Rush University Medical Center, priority 2014, published 2017)

Molecular target: T1, β1 integrin (Mus musculus, UniProt P09055)
T1 construct: we quantified the level of β1 in treated cells; endogenous in cells; host or cells: conditionally immortalized murine podocytes (from mouse line H-2Kb-tsA58)
Test: β1 integrin and active β1 integrin levels (antibody 9EG7) in PAN-treated murine podocytes
Assay type: cell-based
Description: FIG. 9A-9E. An An β1-integrin agonist pyrintegrin (pyr) protects podocytes from damage. (A) The published chemical structure of pyr. (Xu et al. PNAS, 2010.) (B-D) Pyr protects podocytes from PAN-induced loss of F-actin fibers and focal adhesions and enhances active β1-integrin levels. (B) Graphs showing the effect of pyr on the number of F-actin fibers per cell and the number of vinculin spots per cell under each treatment condition. Data shown are means 6 SEMs per cell from three replicate wells (n=500-1000 cells per well). **P, 0.01; ***P, 0.001; ****P, 0.001. (C) Representative fluorescence images of murine podocytes after various treatments and after staining with phalloidin and antiactive β1 antibody. Two-color costained images show cells stained with phalloidin (red) and anti-active β1 antibody 9EG7 (green). Images were acquired using the Opera HCS System. […] Data shown are means±SEMs per cell from four to five replicate wells (n=500-1000 cells per well). Scale bar, 50 μm. *P, 0.01; **P, 0.001. (D) Representative fluorescence images of human podocytes after various treatments as shown. Images show cells stained with phalloidin (red) and anti-active β1-integrin antibody 12G10 (green). Images were acquired using the Opera HCS System. […] Data shown are medians±SEMs per cell from four to five replicate wells (n=500-1000 cells per well). Scale bar, 50 μm. **P, 0.01; ***P, 0.001. (E) Pyr reduces injury-mediated increase in podocyte migration in a scratch wound-healing assay. Representative images (left panel) and a bar graph (right panel) showing confocal microscopy-based quantitation of the number of migrating podocytes in a scratch wound-healing assay Lines represent the wound margins at the beginning of the experiment (0 hours). The data presented in the graph are plotted as means±SEMs (n≧15). C, control. Scale bar, 50 μm. **P<0.01; ****P<0.001.
FIG. 16. […] The cellular damage was assessed after staining the cells with phalloidin, anti-paxillin and anti-integrin β1 antibodies and quantifying various cellular phenotypes using the HCS system. […]

T1 sequence (P09055 21-798): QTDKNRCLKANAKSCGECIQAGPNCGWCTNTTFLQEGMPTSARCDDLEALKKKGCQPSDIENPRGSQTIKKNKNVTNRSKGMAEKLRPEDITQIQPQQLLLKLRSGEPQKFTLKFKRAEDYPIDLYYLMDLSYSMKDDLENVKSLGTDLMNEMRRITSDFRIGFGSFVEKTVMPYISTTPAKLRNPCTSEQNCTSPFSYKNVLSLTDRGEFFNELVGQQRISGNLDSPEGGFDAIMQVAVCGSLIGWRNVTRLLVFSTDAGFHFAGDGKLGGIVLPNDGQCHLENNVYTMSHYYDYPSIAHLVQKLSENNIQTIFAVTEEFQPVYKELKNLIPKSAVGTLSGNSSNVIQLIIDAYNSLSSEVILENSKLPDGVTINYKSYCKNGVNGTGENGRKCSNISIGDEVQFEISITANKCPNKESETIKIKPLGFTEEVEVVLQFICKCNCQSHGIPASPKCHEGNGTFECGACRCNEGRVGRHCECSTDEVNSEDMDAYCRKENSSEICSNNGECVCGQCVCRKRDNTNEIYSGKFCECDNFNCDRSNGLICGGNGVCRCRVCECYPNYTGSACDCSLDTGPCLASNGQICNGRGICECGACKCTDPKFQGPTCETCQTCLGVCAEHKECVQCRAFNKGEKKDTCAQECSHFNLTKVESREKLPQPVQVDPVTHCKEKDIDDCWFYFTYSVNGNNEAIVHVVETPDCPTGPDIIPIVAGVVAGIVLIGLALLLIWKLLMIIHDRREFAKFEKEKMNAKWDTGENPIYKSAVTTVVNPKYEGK
T1 sequence (Q62470 33-1053 partner): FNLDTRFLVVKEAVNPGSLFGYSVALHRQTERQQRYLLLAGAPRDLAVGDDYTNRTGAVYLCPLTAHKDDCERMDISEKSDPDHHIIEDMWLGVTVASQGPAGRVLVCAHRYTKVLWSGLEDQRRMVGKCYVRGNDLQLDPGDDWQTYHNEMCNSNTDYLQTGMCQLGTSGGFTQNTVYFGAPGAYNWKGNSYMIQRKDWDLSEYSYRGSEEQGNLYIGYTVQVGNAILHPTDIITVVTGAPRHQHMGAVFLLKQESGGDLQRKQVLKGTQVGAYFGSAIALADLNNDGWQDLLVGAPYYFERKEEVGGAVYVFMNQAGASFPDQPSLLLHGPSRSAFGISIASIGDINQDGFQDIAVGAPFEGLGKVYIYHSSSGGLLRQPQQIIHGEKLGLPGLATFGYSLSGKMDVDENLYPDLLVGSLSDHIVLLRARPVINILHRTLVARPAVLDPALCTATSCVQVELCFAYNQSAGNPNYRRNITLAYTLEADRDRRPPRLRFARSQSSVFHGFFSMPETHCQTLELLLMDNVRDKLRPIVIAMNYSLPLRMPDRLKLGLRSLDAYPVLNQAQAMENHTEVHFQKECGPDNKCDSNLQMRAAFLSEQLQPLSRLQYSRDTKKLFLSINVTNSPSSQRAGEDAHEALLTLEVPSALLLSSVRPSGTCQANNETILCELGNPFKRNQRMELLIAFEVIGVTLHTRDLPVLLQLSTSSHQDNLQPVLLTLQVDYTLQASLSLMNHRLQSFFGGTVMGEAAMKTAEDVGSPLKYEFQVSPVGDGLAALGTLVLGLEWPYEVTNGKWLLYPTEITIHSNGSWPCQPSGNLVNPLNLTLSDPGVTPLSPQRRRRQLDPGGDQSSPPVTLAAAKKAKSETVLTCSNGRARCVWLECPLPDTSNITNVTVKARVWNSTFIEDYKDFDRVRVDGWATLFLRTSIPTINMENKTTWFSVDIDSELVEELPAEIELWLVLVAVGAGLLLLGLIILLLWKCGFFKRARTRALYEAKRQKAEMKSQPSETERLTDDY

β1 levels in podocytes (PAN 30 μg/mL, pyr 1 μM cotreatment, 48 h (FIG. 16)): preserved
active β1 levels in healthy cells (healthy cells, no PAN): significant increase in active β1 levels
SMILES: O=S(=O)(NCC1CC1)c1ccc(Nc2nccc(N3CCCc4cc(O)ccc43)n2)cc1 [Pyrintegrin]
active β1 levels in podocytes (antibody 9EG7) (PAN cotreatment): significant loss of active β1 levels in podocytes but not on treatment with pyrintegrin
